Reference: ChEMBL document CHEMBL5390261, “Agents for the Treatment of Gout: Current Advances and Future Perspectives” (J Med Chem, 2023)
Values belong to the compound of their own block, whether it stands above or below them.

How the values were obtained:
[1] = molecular target: Xanthine dehydrogenase/oxidase (Bos taurus, UniProt P80457); test: Inhibition of Bovine milk xanthine oxidase using xanthine as substrate assessed as decrease in uric acid level preincubated for 5 mins followed by substrate addition by spectrophotometric analysis
Chain of Xanthine dehydrogenase/oxidase (Bos taurus, UniProt P80457) (P80457 whole entry): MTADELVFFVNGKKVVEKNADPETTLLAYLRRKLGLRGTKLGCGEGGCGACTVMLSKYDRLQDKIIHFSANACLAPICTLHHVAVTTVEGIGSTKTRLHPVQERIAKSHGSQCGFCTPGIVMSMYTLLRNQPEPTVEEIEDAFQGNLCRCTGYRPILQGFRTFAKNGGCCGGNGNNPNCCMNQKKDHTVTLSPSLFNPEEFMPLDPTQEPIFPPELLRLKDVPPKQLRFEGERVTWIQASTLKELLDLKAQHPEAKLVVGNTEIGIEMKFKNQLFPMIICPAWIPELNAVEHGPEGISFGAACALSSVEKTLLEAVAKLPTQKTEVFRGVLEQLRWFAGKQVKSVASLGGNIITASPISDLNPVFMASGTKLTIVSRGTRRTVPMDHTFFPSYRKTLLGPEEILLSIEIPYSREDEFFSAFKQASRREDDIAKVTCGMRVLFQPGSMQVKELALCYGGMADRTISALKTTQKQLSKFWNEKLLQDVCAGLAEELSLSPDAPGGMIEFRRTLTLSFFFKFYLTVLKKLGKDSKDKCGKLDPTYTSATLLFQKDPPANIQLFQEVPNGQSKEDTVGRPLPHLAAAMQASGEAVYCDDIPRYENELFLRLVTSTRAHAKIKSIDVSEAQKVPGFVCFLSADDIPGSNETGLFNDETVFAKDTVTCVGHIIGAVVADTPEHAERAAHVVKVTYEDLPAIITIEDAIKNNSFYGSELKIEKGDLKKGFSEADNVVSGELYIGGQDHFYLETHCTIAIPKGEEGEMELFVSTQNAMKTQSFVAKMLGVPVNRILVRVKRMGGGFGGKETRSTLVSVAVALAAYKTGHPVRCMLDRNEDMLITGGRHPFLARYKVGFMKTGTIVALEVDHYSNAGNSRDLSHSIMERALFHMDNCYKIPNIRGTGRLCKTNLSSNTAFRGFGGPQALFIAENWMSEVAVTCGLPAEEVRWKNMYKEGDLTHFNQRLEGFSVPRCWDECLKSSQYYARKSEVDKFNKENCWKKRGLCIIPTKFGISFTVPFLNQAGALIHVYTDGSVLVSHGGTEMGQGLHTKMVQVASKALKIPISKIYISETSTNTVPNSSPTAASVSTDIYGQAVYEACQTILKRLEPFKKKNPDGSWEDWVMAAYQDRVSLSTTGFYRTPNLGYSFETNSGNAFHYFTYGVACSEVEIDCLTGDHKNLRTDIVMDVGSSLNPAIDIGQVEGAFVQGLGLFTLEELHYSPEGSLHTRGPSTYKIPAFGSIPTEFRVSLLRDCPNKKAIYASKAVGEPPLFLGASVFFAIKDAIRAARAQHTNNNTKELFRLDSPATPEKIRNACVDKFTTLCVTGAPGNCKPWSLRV

[2] = molecular target: T1, Xanthine dehydrogenase/oxidase (Homo sapiens, UniProt P47989); test: Inhibition of XO (unknown origin) by microtitre plate analysis
T1 sequence (P47989 whole entry): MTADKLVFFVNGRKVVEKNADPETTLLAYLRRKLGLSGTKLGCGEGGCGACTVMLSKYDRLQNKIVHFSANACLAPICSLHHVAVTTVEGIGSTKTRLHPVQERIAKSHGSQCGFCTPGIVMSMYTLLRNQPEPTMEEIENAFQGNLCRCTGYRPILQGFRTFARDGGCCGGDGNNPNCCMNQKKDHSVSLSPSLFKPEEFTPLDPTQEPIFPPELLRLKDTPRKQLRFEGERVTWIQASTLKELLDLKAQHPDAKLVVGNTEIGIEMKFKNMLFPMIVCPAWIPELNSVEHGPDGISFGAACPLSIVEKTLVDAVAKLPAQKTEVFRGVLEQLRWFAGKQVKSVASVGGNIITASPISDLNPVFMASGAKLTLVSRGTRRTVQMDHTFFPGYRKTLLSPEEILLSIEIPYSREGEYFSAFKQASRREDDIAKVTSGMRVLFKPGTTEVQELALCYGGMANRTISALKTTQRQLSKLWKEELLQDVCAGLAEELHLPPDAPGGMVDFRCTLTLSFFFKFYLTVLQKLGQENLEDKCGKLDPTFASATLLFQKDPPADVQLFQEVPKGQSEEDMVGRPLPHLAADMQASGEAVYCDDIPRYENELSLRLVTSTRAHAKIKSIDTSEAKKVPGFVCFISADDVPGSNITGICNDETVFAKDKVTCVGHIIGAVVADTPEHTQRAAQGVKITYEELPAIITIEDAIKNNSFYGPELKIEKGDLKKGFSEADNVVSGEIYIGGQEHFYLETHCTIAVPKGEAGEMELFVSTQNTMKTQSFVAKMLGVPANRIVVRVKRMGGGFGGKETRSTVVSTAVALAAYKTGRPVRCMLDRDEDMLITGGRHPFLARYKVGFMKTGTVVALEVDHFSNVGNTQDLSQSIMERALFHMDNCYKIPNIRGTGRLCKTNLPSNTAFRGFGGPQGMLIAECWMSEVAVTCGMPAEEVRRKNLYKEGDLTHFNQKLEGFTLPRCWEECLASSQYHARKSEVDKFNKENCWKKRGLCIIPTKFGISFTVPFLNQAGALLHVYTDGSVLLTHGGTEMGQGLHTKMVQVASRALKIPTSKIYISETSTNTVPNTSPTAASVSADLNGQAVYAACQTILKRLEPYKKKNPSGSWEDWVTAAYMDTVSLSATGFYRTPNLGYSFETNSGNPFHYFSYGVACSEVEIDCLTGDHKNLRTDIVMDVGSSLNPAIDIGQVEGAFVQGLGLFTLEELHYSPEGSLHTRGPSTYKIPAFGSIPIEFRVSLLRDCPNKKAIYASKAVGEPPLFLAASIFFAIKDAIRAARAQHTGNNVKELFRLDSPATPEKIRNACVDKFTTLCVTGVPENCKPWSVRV

[3] = molecular target: T1, Xanthine dehydrogenase/oxidase; test: Inhibition of XO (unknown origin) using xanthine as substrate assessed as reduction in uric acid formation by double beam spectrophotometric analysis
[4] = molecular target: T1, Xanthine dehydrogenase/oxidase; test: Inhibition of XO (unknown origin) using xanthine as substrate assessed as reduction in uric acid formation by FluoSTAR OPTIMA plate reader analysis
[5] = molecular target: T1, Xanthine dehydrogenase/oxidase; test: Inhibition of XO (unknown origin) using xanthine as substrate preincubated for 3 hrs followed by substrate addition by UV-Vis spectrophotometric analysis
[6] = molecular target: T1, Xanthine dehydrogenase/oxidase; test: Inhibition of XO (unknown origin)

- IC50 [4]: 0.84 µM
Structure (SMILES): COc1ccc([C@@H]2CC(=O)c3c(O)cc(O)cc3O2)cc1O [HESPERETIN]

- IC50 [5]: 1.26 µM
Structure (SMILES): O=c1cc(-c2ccccc2)oc2cc(O)cc(O)c12 [CHRYSIN]

- IC50 [6]: 3.53 µM
Structure (SMILES): O=c1c(-c2ccc(O)cc2)coc2cc(O)cc(O)c12 [GENISTEIN]

Further lines, the compound ahead of its results:

Structure (SMILES): O=c1oc2ccccc2c2c1C(c1cccs1)C=C(c1ccccc1)O2 (configuration not stated)
- IC50 [1]: 2.21 µM

Structure (SMILES): COc1cc(O)cc2c(=O)oc(O)c(C)c12
- IC50 [2]: 2.97 µM

Structure (SMILES): O=c1oc2c(O)ccc(-c3oc4cc(O)cc(O)c4c(=O)c3O)c2s1
- IC50 [3]: 0.05 µM

Structure (SMILES): O=c1ccc2cc(O)c(O)cc2o1 [ESCULETIN]
- IC50 [2]: 42 µM
